Results: US4738975A, “Pyridine derivatives, and use as anti-ulcer agents” (Takeda Chemical Industries, Ltd., priority 1985, dated 1988)

Tests used:
gastric mucosa = test: gastric mucosal injury induced by ethanol (action of protecting gastric mucosa); assay type: in vivo, Male Sprague-Dawley rats; details: Rattus norvegicus, po; 6 rats per group; doses 3, 10 and 30 mg/kg; 30 min before 1 ml of 100% ethanol; read-out: Action of protecting gastric mucosa ID50
Experimental: As a method of determining the ability to protect gastric mucosa, gastric mocosal injury induced by ethanol [Robert A., Gastroenterology 77, 761 (1979)] is often used. This method was applied to evaluation of the compounds of this invention. Male Sprague-Dawley rats 7-weeks old were fasted for 24 hours. These animals were administered test compounds into the stomach by using a gastric tube. After 30 minutes, 1 ml of 100% ethanol was administered orally. The animals were killed by carbon dioxide gas 60 minutes after ethanol administration. The stomach was removed together with the lower part of esophagus and the duodenum. The esophagus was clipped, 10 ml of 1% formalin solution was instilled into the stomach from the duodenum, and then the duodenum was clipped. The whole stomach was immersed in 1% formalin solution. About 15 minutes later, the stomachs were opened along the greater curvature. Length of the lesions which occurred in the gastric corpus mucosa was measured under a dissecting microscope with a square-grid eye piece (×10). The sum total length of the individual lesions in each animal was measured, and the average value per group was calculated. Based on the difference between the average value of each group and that of the control group, the inhibition rate was determined. The test compound was suspended in a 5% gum arabic solution, and administered in a volume of 2 ml/kg. | administered in a dose of 3, 10 and 30 mg/kg to determine ID50.

oral toxicity in mice = assay type: in vivo; details: oral administration, 500 mg/kg

Question: Which ED50 (gastric mucosa) does the source give for `COc1ccnc(C[S+]([O-])c2nc3cc(C(F)(F)F)ccc3[nH]2)c1C` (stereo not shown) [5-CF3, CH3, CH3, H, reference compound] here?
Answer: The ED50 was 24 mg/kg.

Question: Which ED50 (gastric mucosa) does the source give for `COc1ccc2[nH]c([S+]([O-])Cc3ncc(C)c(OC)c3C)nc2c1` (stereo not shown) [5-OCH3, CH3, CH3, CH3, reference compound] here?
Answer: Its ED50 is 22 mg/kg.

Question: For `COc1ccnc(C[S+]([O-])c2nc3ccccc3[nH]2)c1OC` (stereo not shown) [Example 6, 2-[(3,4-dimethoxypyrid-2-yl)methylsulfinyl]benzimidazole], which fatal effect (oral toxicity in mice) is on record?
Answer: The fatal effect was “no fatal effect”.

Question: And the ED50 (gastric mucosa)?
Answer: The ED50 was 3.2 mg/kg.

Question: With `COc1ccnc(C[S+]([O-])c2nc3ccc(C(F)(F)F)cc3[nH]2)c1OC` (stereo not shown) [Example 9, 2-[(3,4-dimethoxypyrid-2-yl)methylsulfinyl]-5-trifluoromethylbenzimidazole] as the molecule, how does the ED50 (gastric mucosa) read?
Answer: The ED50 was 3 mg/kg.

Question: Which results are given for `COc1c(OCC(F)(F)F)ccnc1C[S+]([O-])c1nc2ccccc2[nH]1` (stereo not shown) [Example 18, 2-[[3-methoxy-4-(2,2,2-trifluoroethoxy)pyrid-2-yl]methylsulfinyl]benzimidazole]?
Answer: fatal effect (oral toxicity in mice): no fatal effect; ED50 (gastric mucosa): 6.2 mg/kg
